Measured values from patent publication US20220348876A1, “METABOLISM GUIDES DEFINITIVE LINEAGE SPECIFICATION DURING ENDOTHELIAL TO HEMATOPOIETIC TRANSITION” (Amniotics AB, priority 2019, published 2022).

How the values were obtained:
HE cells [1] = assay: single-cell RNAseq of treated HE cells at day 2; type: cell-based, human
Description: Sorted HE, EHT and HSC-like cells as well magnetically selected (Miltenyi Biotec) cord blood CD34^+ cells were plated onto Matrigel (16 μg/cm^2, Corning)-coated 96-well flat bottom plates in HE medium (Ditadi, A. & Sturgeon, C. M. Methods 101, 65-72 (2016)) with 1% penicillin-streptomycin and kept in a humidified incubator at 37° C., 5% CO2, 4% O2 overnight. The following day (day 0), wells were washed twice with PBS and fresh HE medium was added, together with UK5099 (10 μM) or DCA (3 mM), where indicated. On day 1 and 2 (as indicated), cells were washed twice with PBS 0.04% UltraPure BSA and collected after a 2-minute incubation at 37° C. with StemPro Accutase Cell Dissociation Reagent. Cells were spun down, resuspended in PBS 0.04% UltraPure BSA, counted (yield between 8,000-18,000 cells) and library preparation was conducted according to the Chromium Single Cell 3′ Reagent kit v3 instructions (10× Genomics). Sequencing was performed on a NOVASeq 6000 from Illumina with the run parameters (28-8-0-91) recommended by 10× Genomics with a final loading concentration of 300 pM of the pooled libraries. Human Umbilical Cord Blood samples were collected from Skane University Hospital (Lund and Malmo) and Helsingborg Hospital with informed consents according to guidelines approved by the regional ethical committee.
The data was processed and analyzed using Seurat v3.1.0, where cells were allowed to have up to 20% mitochondrial reads prior to log-normalization and finding the top 500 variable genes using the “vst” method. Cell cycle scores were calculated and the data was scaled regressing on mitochondrial content and the difference of the S and G2M score. Principal components were calculated prior to calculating a UMAP. Pseudotime trajectories describing two developmental routes were identified in our EHT dataset using Slingshot (Street, K. et al. BMC Genomics 19, 477 (2018)) along which the cells were ordered. The cells were then binned along each trajectory where the cell-type composition of each bin was calculated as percentages. Cord blood CD34^+ cells were mapped to our data and labeled using scCoGAPS (Stein-O'Brien, G. L. et al. Cell Syst 8, 395-411.e8 (2019)). CS13 data from Zeng et al. (Zeng, Y. et al. Cell Res 1-14 (2019)) was read and processed to make a UMAP from which the cells they name as “AEC” and “Hem” were identified. These 99 cells were mapped to our data and labeled using SCMAP (Kiselev, V. Y. et al. Nat Methods 15, 359-362 (2018)). Our EHT data was mapped to data from Zeng et al. (Zeng, Y. et al. Cell Res 1-14 (2019)) and vice versa using scCoGAPS where 10 patterns were identified in each data set and then projected to each other using projectR. Each cell was assigned to the group that achieved the highest weight. An overview showing the relationship between cell-types and patterns was done by forming a contingency table on which correspondence analysis was performed using the ca package for R. Differentially expressed genes were found using the FindAllMarkers function. Cell numbers for day 1 samples are as follows: HE=1451, EHT=1523, HSC-like=732. […] All assessed endothelial and hematopoietic genes were previously used in several publications to validate the EHT process (Zhou, F. et al. Nature 533, 487-492 (2016); Swiers, G. et al. Nat Commun 4, 2924 (2013); Ng, E. S. et al. Nature Biotechnology 34, 1168-1179 (2016) and Guibentif, C. et al. Cell Reports 19, 10-19 (2017)). […]

HE cells [2] = assay: GPA+ clones from single HE cells on OP9-DL1 stroma; type: cell-based, human; settings: of 552 single cells per condition, day 14; control 9
Description: In some examples to further assess the effect of pyruvate manipulation on a single cell level, single HE cells were sorted onto OP9-DL1 stroma and GPA^+ clones were scored at day 14. From a total of 552 single cells per condition, 12 GPA^+ clones were detected in the UK5099-treated condition and 7 GPA^+ clones in the DCA-treated condition as compared to 9 GPA^+ clones in the control (FIG. 14, d).

HE cells [3] = assay: HE cell subculture with compounds, flow cytometry; type: cell-based, human
HE cells [4] = assay: Colony forming unit assay of subcultured HE cells; type: cell-based, human; settings: for ratio of CFU-E colonies to the sum of CFU-G, CFU-GM and CFU-M colonies: 6 days, compared to the control
Description: Subcultured HE cells were treated with StemPro Accutase Cell Dissociation Reagent for 2 minutes at 37° C. and dissociated cells were resuspended in 3 ml Methocult H4230 (STEMCELL Technologies, France) (prepared according to manufacturer's instructions, with 20 mL Iscove's Modified Dulbecco's Medium containing 2.5 μg hSCF, 5 μg GM-CSF, 2.5 μg IL-3 and 500 U EPO). Each mixture was divided onto 2 wells of a non-tissue culture treated 6-well plate. Following a 12-day incubation in a humidified incubator at 37° C., 5% CO2, 20% O2, colonies were morphologically distinguished and scored. For globin analysis, colonies in Methocult wells were harvested with PBS, washed thoroughly and frozen in RLT buffer with β-mercaptoethanol. Following RNA extraction and RT (Qiagen), gene expression was assessed with taqman probes by q-PCR. The taqman probes used in this study are HBA1/2 (Hs00361191_g1), HBE1 (Hs00362216_m1), HBG2/1 (Hs00361131_g1) and KLF1 (Hs00610592_m1).

[5] = test system: mitochondrial pyruvate carrier (MPC); settings: read-out: IC50 of pyruvate-dependent O2 consumption; cited from earlier work
[6] = 3 or 6 days of UK5099, vs untreated

O=C(O)C(Cl)Cl [DCA, dichloroacetate]
less cells in cluster 7 compared to the control (HE cells [1]; day 2, DCA 3 mM): 35% | GPA+ clones (HE cells [2]): 7 | decrease in CD43+GPA+ population (HE cells [3]; day 6 of HE subculture, DCA 3 mM): 50% | increase in the percentage of CD43+CD45+ cells (HE cells [3]; deriving from HE, day 6, DCA 3 mM): 80% | ratio of CFU-E colonies to the sum of CFU-G, CFU-GM and CFU-M colonies (HE cells [4]): more than 3 -fold lower

N#C/C(=C\c1cn(-c2ccccc2)c2ccccc12)C(=O)O [UK5099]
expression of LSD1, GFI1 and GFI1B (HE cells [1]; UK5099-treated compared to DCA-treated cells): higher levels | average expression levels of erythroid lineage genes (RYK, KLF3, TAL1, GATA2, ZFPM1, KLF1, NFE2, ANK1, HBQ1) (HE cells [1]; clusters 6 and 7, vs untreated HE cells): higher | more cells in cluster 7 compared to the control (HE cells [1]; day 2, UK5099 10 μM): 38% | percentage of cells in cluster 6 (HE cells [1]; day 2, UK5099 10 μM or DCA 3 mM): constant between conditions | GPA+ clones (HE cells [2]): 12 | IC50 [5]: […] | proliferation of CD45+ cells deriving from HE (HE cells [3]; CTV, UK5099 10 μM or DCA 3 mM): […] | frequency of HSC-like cells deriving from HE (HE cells [3]; UK5099 10 μM or DCA 3 mM): did not have an effect | proliferation of the GPA+ population deriving from HE (HE cells [3]; day 3, CTV, UK5099 10 μM or DCA 3 mM): […] | HE-derived CD43+GPA+ cell output (HE cells [3]; day 3 of subculture vs control, BPTES 25 μM, UK5099 10 μM, 1-AA 4 mM, DCA 3 mM): striking increase | levels of total CD43+ cells (HE cells [3]; day 6, treated vs untreated): unchanged | proliferation by EdU incorporation (HE cells [3]; days 1 and 2 of subculture, 24 h pulse): […] | decrease in the CD43+CD45+ population (HE cells [3]; deriving from HE cells, day 6, UK5099 10 μM): 2 -fold | erythroid colony (CFU-E) formation (HE cells [4]; [6]): significantly increased | granulocyte and macrophage colonies (CFU-G, GM and M) (HE cells [4]; [6]): decreased | ratio of CFU-E colonies to the sum of CFU-G, CFU-GM and CFU-M colonies (HE cells [4]): […]
